# Values of other authors in US20050143344A1, “Methods and compositions using immunomodulatory compounds for the treatment and management of central nervous system disorders or diseases” (priority 2003, published 2005).
# B1: GDNF: glial cell line derived neurotrophic factor, delivered by lentiviral vectors to striatum and SN of rhesus monkeys (protein, UniProt P39905 78-211, looked up)
# Glial cell line-derived …: SPDKQMAVLPRRERNRQAAAANPENSRGKGRRGQRGKNRGCVLTAIHLNVTDLGLGYETKEELIFRYCSGSCDAAETTYDKILKNLSRNRRLVSDKVGQACCRPIAFDDDLSFLDDNLVYHILRKHSAKRCGCI
# modifications: lentiviral vector delivery
# notes: glial cell line derived neurotrophic factor, delivered by lentiviral vectors to striatum and SN of rhesus monkeys
# Legend:
# [1] = for conversion in acetone and other anhydrous systems: acetone / anhydrous solvent systems
# nigrostriatal neurons = settings: lentiviral vector delivery
molecule,measurement,setting,value
"Nc1cccc2c1CN(C1CCC(=O)NC1=O)C2=O (stereo not drawn) [Form B, 3-(4-amino-1-oxo-1,3 dihydro-isoindol-2-yl)-piperidene-2,6-dione]",conversion upon heating,[1]; 175° C. for about five minutes,can convert to Form F
same,conversion in acetone and other anhydrous systems,[1],converts to other forms
same,stability / conversion in aqueous solvent systems,[1]; aqueous solvent systems,converts to Form E
"Nc1cccc2c1CN(C1CCC(=O)NC1=O)C2=O (stereo not drawn) [Form C, 3-(4-amino-1-oxo-1,3 dihydro-isoindol-2-yl)-piperidene-2,6-dione]",conversion at higher relative humidities,[1],can convert to Form B
"Nc1cccc2c1CN(C1CCC(=O)NC1=O)C2=O (stereo not drawn) [Form D, 3-(4-amino-1-oxo-1,3 dihydro-isoindol-2-yl)-piperidene-2,6-dione]",conversion at higher relative humidities,[1],will typically convert to Form B
"Nc1cccc2c1CN(C1CCC(=O)NC1=O)C2=O (stereo not drawn) [Form E, 3-(4-amino-1-oxo-1,3 dihydro-isoindol-2-yl)-piperidene-2,6-dione]",conversion in THF solvent system,[1]; THF solvent system,to Form G
same,conversion upon heating (desolvation),[1]; about 125° C. for about five minutes,can convert to Form B
same,conversion in acetone and other anhydrous systems,[1],can convert to Form C
B1,motor deficits,nigrostriatal neurons; MPTP treated monkeys,reversed
same,dopaminergic function,nigrostriatal neurons; aged monkeys,augmented
same,functional deficits,nigrostriatal neurons; monkeys treated with MPTP,reversed
same,nigrostriatal degeneration,nigrostriatal neurons; monkeys treated with MPTP,prevented
